This is an account of results in patent publication EP4803517A1, “PROTEIN TRANSLATION INHIBITOR” (Duality Biologics (Shanghai) Co., Ltd., priority 2023, dated 2025).

SMILES strings stand for the structures. Read-outs that look alike come from different tables or passages of the source.

Common to all, as to experiment: Inhibition of in vitro proliferation of tumor cells (CTG, CellTiter-Glo)
Common to all, as to format: cell-based
Background: Cellular ATP, detected with luciferase, serves as a proxy for viable cell number.

Test [1] relates to BT474. The note with it: Homo sapiens, BT-474, 120 h, 5 days of culture, CTG reagent, read-out: Proliferation inhibitory activity IC50 (nM) BT474. Here is the method: (§1) Assay objective: To detect the inhibitory effects of the drug compounds on tumor cell proliferation, for example, the inhibitory activity thereof on the in vitro proliferation of NCI-H716, NCI-H1975, NCI-H1373, NCI-H647, NCI-H520, BT474, DLD-1, NCI-N87, NUGC-4, SNU-423, MKN-45, SK-OV-3, OVCAR3, Ls174T, HCC1954, and ES2 tumor cells. The cells were treated with the compounds at different concentrations in vitro. After 5 days of culture, the proliferation of the cells was detected using the CTG (CellTiter-Glo® Luminescent Cell Viability Assay, Promega, Cat. No. G7558) reagent, and the in vitro activity of the compounds was evaluated based on the IC50 value. 1. Cell preparation: NCI-H716, NCI-H1975, NCI-H1373, NCI-H647, NCI-H520, BT474, DLD-1, NCI-N87, NUGC-4, SNU-423, MKN-45, SK-OV-3, OVCAR3, Ls174T, HCC1954, and ES2 cells in the logarithmic phase were each taken, washed once with PBS, and then digested with 2-3 mL of trypsin for 2-3 min. After the cells were digested completely, 10-15 mL of a cell culture medium was added to elute the digested cells. The eluate was centrifuged at 1000 rpm for 5 min, and the supernatant was discarded. Subsequently, the resulting cells were resuspended in 10-20 mL of the cell culture medium to prepare a single-cell suspension. 2. Cell plating: The NCI-H716, NCI-H1975, NCI-H1373, NCI-H647, NCI-H520, NCI-N87, BT474, DLD-1, NCI-N87, NUGC-4, SNU-423, MKN-45, SK-OV-3, OVCAR3, Ls174T, HCC1954, and ES2 single-cell suspensions were each well mixed and adjusted to a viable cell density of 6 × 10^4 cells/mL with the cell culture medium. The density-adjusted cell suspensions were each well mixed and added to a 96-well cell culture plate at 50 µL/well. The culture plate was incubated in an incubator overnight (37 °C, 5% CO2). 3. Compound preparation: Each compound was dissolved in DMSO to prepare a stock solution with an initial concentration of 10 mM. There were 6 concentrations in total for the small molecule compound: 1000 nM, 333 nM, 111 nM, 37.03 nM, 12.34 nM, and 4.11 nM. 4. Sample addition: The prepared test samples at different concentrations were added to the culture plate, with two duplicate wells set for each sample. The culture plate was incubated in the incubator for 5 days (37 °C, 5% CO2). 5. Color development: The 96-well cell culture plate was taken out, and 50 µL of the CTG reagent was added to each well. The plate was then incubated at room temperature for 10 min. 6. Plate reading: The 96-well cell culture plate was taken out and placed in a microplate reader, and the chemiluminescence was measured using the microplate reader. 7. Data analysis: The cell viability was calculated according to the formula: (Lumtest drug - Lumblank control)/(Lumsolvent blank control - Lumblank control) × 100%. Using a nonlinear regression model in the GraphPad Prism software, a sigmoidal dose-survival rate curve was plotted, and the IC50 values were calculated. Table 2. IC50 values for the inhibition of the in vitro proliferation of tumor cells by the racemates of the small molecule compounds of the present application

The test system of test [2] is DLD-1. As to conditions: Homo sapiens, 120 h, DLD-1 cells, 5 days of culture, CTG reagent, read-out: Proliferation inhibitory activity IC50 (nM) DLD-1. Here is the method:
as §1

Test [3] has as its system MKN-45. As to conditions: Homo sapiens, 120 h; racemates; MKN-45 cells; 5 days of culture; CTG reagent; read-out: Proliferation inhibitory activity IC50 (nM) MKN-45. Here is the method: as §1
The subject of test [4] is HCC1954. As to conditions: Homo sapiens, 120 h, racemates, 5 days of culture, CTG reagent, read-out: Proliferation inhibitory activity IC50 (nM) HCC1954. Here is the method: as §1
The test system of test [5] is SNU-423. The note with it: Homo sapiens, 120 h; racemates; SNU-423 cells; 5 days of culture; CTG reagent; read-out: Proliferation inhibitory activity IC50 (nM) SNU-423. How it is done: as §1
In test [6] the test system is SK-OV-3. As to conditions: Homo sapiens, 120 h; racemates; SK-OV-3 cells; 5 days of culture; CTG reagent; read-out: Proliferation inhibitory activity IC50 (nM) SK-OV-3. Here is the method:
as §1

Test [7] concerns NCI-N87. As to conditions: Homo sapiens, 120 h, racemates, 5 days of culture, CTG reagent, read-out: Proliferation inhibitory activity IC50 (nM) NCI-N87. Here is the method: as §1
Test [8] relates to NUGC-4. The note with it: Homo sapiens, 120 h; racemates; NUGC-4 cells; 5 days of culture; CTG reagent; read-out: Proliferation inhibitory activity IC50 (nM) NUGC-4. How it is done:
as §1

Test [9] deals with Ls174T. The note with it: Homo sapiens, 120 h, racemates, 5 days of culture, CTG reagent, read-out: Proliferation inhibitory activity IC50 (nM) Ls174T. How it is done:
as §1

The mark [10] stands for this setting: Table 3, chirally resolved compounds.

For the molecule `COc1ccc([C@@]23Oc4cc(-c5ncco5)cc(OC)c4[C@]2(O)[C@H](O)[C@H](C(=O)N2CC(O)C2)[C@H]3c2ccccc2)cc1` (racemic) [Racemate of compound 48], the IC50 in test [1] (racemates) worked out at 2.25 nM.

Turning to `COc1ccc([C@@]23Oc4cc(-c5ncco5)cc(OC)c4[C@]2(O)[C@@H](CNC(=O)CN(C)C)C[C@H]3c2cccc(N)c2)cc1` (single isomer, unassigned) [Compound 93], the IC50 in test [1] (setting [10]) and in [2] (setting [10]) was below 10 nM in each case.

For the molecule `COc1cc(-c2ncco2)cc2c1[C@]1(O)[C@H](O)[C@H](C(=O)N3CC(O)C3)[C@@H](c3ccccc3)[C@]1(c1ccc(C#N)cc1)O2` (racemic) [Racemate of compound 16], the IC50 in test [3] stood at 2.34 nM.

Take `COc1ccc([C@@]23Oc4cc(-c5ncco5)cc(OC)c4[C@]2(O)[C@@H](C#N)C[C@H]3c2cccc(N)c2)cc1` (racemic) [Racemate of compound 86]: the IC50 in test [2] (racemates) came to 2.99 nM; in test [4], 2.15 nM.

Take `COC(=O)[C@H]1[C@@H](O)[C@@]2(O)c3c(OC)cc(-c4ncco4)cc3O[C@@]2(c2ccc(C#N)cc2)[C@@H]1c1cccc(N)c1` (racemic) [Racemate of compound 2]: the IC50 in test [1] (racemates) came out at 3.33 nM; in test [5], 3.67 nM; in test [6], 2.05 nM; in test [7], 2.07 nM; in [8] it was 1.98 nM.

`COc1ccc([C@@]23Oc4cc(-c5ncco5)cc(OC)c4[C@]2(O)[C@@H](CNC(=O)CN(C)C)C[C@H]3c2cccc(N)c2)cc1` (racemic) [Racemate of compound 93]: the IC50 in test [4] was 1.5 nM.

In the case of `COc1ccc([C@@]23Oc4cc(-c5ncco5)cc(OC)c4[C@]2(O)[C@@H](CN)[C@H](CO)[C@H]3c2ccccc2)cc1` (racemic) [Racemate of compound 9], the IC50 in test [1] (racemates) amounted to 0.829 nM; in test [3], 0.695 nM.

`COc1cc(-c2ncco2)cc2c1[C@]1(O)[C@H](O)[C@H](C(=O)N(C)OC)[C@@H](c3cccc(N)c3)[C@]1(c1ccc(C#N)cc1)O2` [Compound 4]: the IC50 in test [1] (setting [10]) and in test [2] (setting [10]) was below 10 nM in each case.

`COc1ccc([C@@]23Oc4cc(OC)cc(OC)c4[C@]2(O)[C@H](O)[C@H](C(=O)N(C)C)[C@H]3c2ccccc2)cc1` [Rocaglamide, reference compound]: the IC50 is 5.49 nM in [1] (racemates); 6.08 nM in test [9]; 14.4 nM in test [5]; 8.52 nM in test [6]; 8.19 nM in test [2] (racemates); 9.32 nM in test [7]. The IC50 in test [8] is 8.25 nM; in test [4], 2.66 nM; in test [3] it was 5.75 nM.

With `COc1cc(-c2ncc(C#N)cn2)cc2c1[C@]1(O)[C@H](O)[C@H](C(=O)N(C)OC)[C@@H](c3cccc(N)c3)[C@]1(c1ccc(C#N)cc1)O2` (racemic) [Racemate of compound 30], in [3], the IC50 stood at 1.5 nM.

As for `COc1cc(-c2ncco2)cc2c1[C@]1(O)[C@H](O)[C@H](C(=O)N(C)OC)[C@@H](c3cccc(N)c3)[C@]1(c1ccc(C#N)cc1)O2` (racemic) [Racemate of compound 4], the IC50 turned out to be 3.04 nM in test [1] (racemates) and 1.4 nM in test [3].

For the molecule `COc1ccc([C@@]23Oc4cc(-c5ncco5)cc(OC)c4[C@]2(O)[C@H](O)C[C@H]3c2cccc(N)c2)cc1` (single isomer, unassigned) [Compound 49], the IC50 in [1] (setting [10]) was below 10 nM.

On to `COc1ccc([C@@]23Oc4cc(-c5ncco5)ccc4[C@]2(O)[C@H](O)[C@H](C(=O)N(C)C)[C@H]3c2ccccc2)cc1` (racemic) [Racemate of compound 57], for which the IC50 in test [2] (racemates) worked out at 2.35 nM.

Take `COc1cnc(-c2cc(OC)c3c(c2)O[C@@]2(c4ccc(C#N)cc4)[C@H](c4cccc(N)c4)[C@@H](C(=O)N(C)OC)[C@@H](O)[C@@]32O)cn1` (racemic) [Racemate of compound 43]: the IC50 in [3] was 2 nM.

Take `COc1ccc([C@@]23Oc4cc(-c5ncco5)cc(OC)c4[C@]2(O)[C@@H](N(C)C)C[C@H]3c2cccc(N)c2)cc1` (single isomer, unassigned) [Compound 98]: the IC50 in test [1] (setting [10]) and in test [2] (setting [10]) was below 10 nM throughout.

Regarding `COc1cc(-c2ncco2)cc2c1[C@]1(O)[C@H](O)[C@H](C(=O)N(C)OC)[C@@H](c3cccc(O)c3)[C@]1(c1ccc(C#N)cc1)O2` (racemic) [Racemate of compound 15], in test [3], the IC50 is 2.65 nM.

As for `COc1cc(-c2ncc(C(F)(F)F)cn2)cc2c1[C@]1(O)[C@H](O)[C@H](C(=O)N(C)OC)[C@@H](c3cccc(N)c3)[C@]1(c1ccc(C#N)cc1)O2` (racemic) [Racemate of compound 32], the IC50 in [9] came out at 5.45 nM.

For the molecule `COC(=O)[C@H]1[C@@H](O)[C@@]2(O)c3c(OC)cc(-c4cnco4)cc3O[C@@]2(c2ccc(C#N)cc2)[C@@H]1c1cccc(N)c1` (racemic) [Racemate of compound 3], the IC50 in test [5] turned out to be 8.18 nM; in [7] it was 3.63 nM; in test [8], 3.51 nM.

Turning to `COc1ccc([C@@]23Oc4cc(-c5ncco5)cc(OC)c4[C@]2(O)[C@@H](CNC(=O)[C@H](CO)N(C)C)C[C@H]3c2ccccc2)cc1` (racemic) [Racemate of compound 89], the IC50 in [2] (racemates) is 1.35 nM.

For `COc1cnc(-c2cc(OC)c3c(c2)O[C@@]2(c4ccc(C#N)cc4)[C@H](c4cccc(N)c4)[C@@H](C(=O)N(C)OC)[C@@H](O)[C@@]32O)nc1` (racemic) [Racemate of compound 31], the IC50 in [3] amounted to 1.32 nM.

In the case of `COc1ccc([C@@]23Oc4cc(-c5ncco5)cc(OC)c4[C@]2(O)[C@@H](CNC(=O)NO)C[C@H]3c2ccccc2)cc1` (racemic) [Racemate of compound 87], the IC50 in [2] (racemates) was 2.84 nM.

For `COc1ccc([C@@]23Oc4cc(-c5ncco5)cc(OC)c4[C@]2(O)[C@@H](CNC(=O)COCCO)C[C@H]3c2ccccc2)cc1` (racemic) [Racemate of compound 91], in test [2] (racemates), the IC50 turned out to be 2.16 nM.

For the molecule `COc1ccc([C@@]23Oc4cc(-c5nc(CO)co5)cc(OC)c4[C@]2(O)[C@@H](N(C)C)C[C@H]3c2ccccc2)cc1` (racemic) [Racemate of compound 107], the IC50 in [2] (racemates) worked out at 0.92 nM.

With `COc1cc(-c2cscn2)cc2c1[C@]1(O)[C@H](O)[C@H](C(=O)N(C)C)[C@@H](c3cccc(N)c3)[C@]1(c1ccc(C#N)cc1)O2` (racemic) [Racemate of compound 111], the IC50 in test [4] was determined as 2.98 nM.
